One block for each compound: values may come before it.
Tests used:
[1] = tested on: iHeps in co-culture with iKCs; assay: in vitro; assay type: cell-based, human
Description: (§1) For co-cultures, NL-Mφ, pKCs or iKCs were seeded at a density of 12,000 to 15,000 cells per well on Collagen I-coated 96-well plates. The cells were seeded in their respective media for 24 hours. Following cell attachment, medium was removed and iHeps or pHeps were seeded at a density of 2.5 times the density of the NL-Mφ/pKCs/iKCs in William's E media containing supplemental cocktail B. In some experiments, Advanced DMEM with supplement cocktail B (Media A) was used. The matching hepatocyte mono-culture controls were seeded in the same media and at the same density as the co-cultures.
(§2) Cell viability of differentiated hepatocytes was measured 24 hours after treatment with drugs using Alamar Blue® cell viability assay (Life Technologies) according to manufacturer's instructions. The following drugs were used for the cell viability assays: Acetaminophen, Trovafloxacin and Levofloxacin (all drugs from Sigma). Stock solutions of drugs were prepared in DMSO and then diluted in media to obtain desired working concentrations. Controls were treated with solvent alone (in absence of test compounds) and considered as 100% viability value.

[2] = tested on: pHeps in co-culture with NL-Mφ; assay type: cell-based, human
Description: as §1, §2

[3] = tested on: pHeps in co-culture with pKCs; assay: Alamar Blue cell viability, pHeps-pKCs co-culture; assay type: cell-based, human; details: Homo sapiens, 24 h
Description: as §1, §2

[4] = tested on: pHeps in co-culture with iKCs; assay: Alamar Blue cell viability, pHeps-iKCs co-culture; assay type: cell-based, human; details: Homo sapiens, 24 h
Description: as §1, §2

pHeps mono-culture = assay: Alamar Blue cell viability, pHeps mono-culture; assay type: cell-based, human; details: Homo sapiens, 24 h
Description: as §1, §2

iHeps mono-culture [5] = assay: Alamar Blue cell viability, iHeps mono-culture; assay type: cell-based, human; details: Homo sapiens; iHeps mono-culture
Description: as §1, §2

iHeps-iKCs co-culture [6] = assay: Bile acid accumulation (FDA); assay type: cell-based, human; details: 100 ng/ml LPS and 10 μM CPZ, 24 hours; versus untreated control
Description: (§3) Cells were incubated with 10 μM Fluorescein diacetate (FDA) and incubated for 30 minutes. The FDA-containing medium was removed and the cells were washed thrice with medium to remove any residual FDA. Images of bile acid accumulation were acquired using Olympus BX-DSU and quantified using Image J software and normalized to untreated control.

iHeps mono-culture [7] = assay: Cholestasis model, mono-culture control; assay type: cell-based, human; details: CPZ treatment
Description: as §3

iHeps-iKCs co-culture [8] = assay: Cytokine production (ELISA) in cholestasis model; assay type: cell-based, human; details: 100 ng/ml LPS and 10 μM CPZ, 24 hours
Description: (§4) Interleukin-6 (IL-6) and Tumor necrosis factor alpha (TNFα) levels in the media were measured using human IL-6 and TNFα enzyme-linked immunosorbent assay (ELISA) kits (Abcam) according to manufacturer's instructions.
as §3

[9] = tested on: BSEP, MDR1 and MRP1 mRNA in iHeps-iKCs co-culture; assay: qPCR of bile transporter genes in cholestasis model; assay type: cell-based, human; details: CPZ treatment
Description: RNA was isolated using RNeasy Micro-kit (Qiagen, Hilden, Germany), RNA amount was determined using a NanoDrop™ ND-1000 Spectrophotometer (Life Technologies) and RNA was converted to cDNA using iScript cDNA synthesis kit (Bio-Rad Laboratories, Hercules, Calif., USA). 7000 Fast Real-Time PCR System (Applied Biosystems, Foster City, Calif., USA) was used for qPCR using primers commercially obtained from GeneCopoeia, Inc.
(Rockville, Md., USA). The expression levels of all marker genes were normalized to that of glyceraldehyde-3-phosphate dehydrogenase (GAPDH).
as §3

in vitro = assay type: cell-based, human; details: human
Description: as §1, §2

[10] = Alamar Blue cell viability, pHeps-pKCs co-culture; assay type: cell-based, human; details: human, pHeps in co-culture with pKCs
Description: as §1, §2

[11] = Alamar Blue cell viability, pHeps mono-culture; assay type: cell-based, human; details: human, pHeps mono-culture
Description: as §1, §2

[12] = Alamar Blue cell viability, iHeps mono-culture; assay type: cell-based, human; details: human, iHeps mono-culture (stem-cell derived)
Description: as §1, §2

[13] = Alamar Blue cell viability, pHeps-iKCs co-culture; assay type: cell-based, human; details: human, pHeps in co-culture with iKCs; 100 μM, pHeps-iKCs co-culture
Description: as §1, §2

pKCs = assay: LPS-induced cytokine production (ELISA) in pKCs; assay type: cell-based, human
Description: as §4

iKCs = assay: LPS-induced cytokine production (ELISA) in iKCs; assay type: cell-based, human; parameters: TNFα production upon LPS stimulation: unit not given here
Description: as §4

NL-Mφ = assay: LPS-induced cytokine production (ELISA) in NL-Mφ; assay type: cell-based, human
Description: as §4

pHeps = assay: LPS-induced cytokine production (ELISA) in pHeps; assay type: cell-based, human
Description: as §4

KCs = details: reference [46], cited from earlier work
[14] = 100 ng/ml LPS for 16 hours, versus no LPS

Compound: CC(=O)Nc1ccc(O)cc1 [APAP, Acetaminophen]
cell viability, donor-matched co-culture versus mono-culture [1]: no significant difference
IC50 ([1]; Homo sapiens, read-out: IC50 (cell viability)): 27 mM
cell death, co-culture versus pHeps mono-culture [2]: No difference in cell death
IC50 [3]: 12.5 mM
IC50 [4]: 25 mM
IC50 (pHeps mono-culture): 45 mM
IC50 (iHeps mono-culture [5]): 54 mM

bile acid accumulation (iHeps-iKCs co-culture [6]): Significant bile acid accumulation
bile acid accumulation, cytokine production and reduction in transporter gene expression (iHeps mono-culture [7]): not in mono-culture
Compound: CN(C)CCCN1c2ccccc2Sc2ccc(Cl)cc21 [CPZ, Chlorpromazine]
IL-6 production, fold compared to untreated control (iHeps-iKCs co-culture [8]): 4.5 fold
TNFα production, fold compared to untreated control (iHeps-iKCs co-culture [8]): 6.5 fold
mRNA expression of bile salt export pump (BSEP), fold change to untreated control [9]: 0.3±0.1 folds
mRNA expression of multidrug resistance (MDR1), fold change to untreated control [9]: 0.4±0.2 folds
mRNA expression of multidrug resistance-associated protein 1 (MRP1), fold change to untreated control [9]: 0.5±0.2 folds

Compound: C[C@H]1COc2c(N3CCN(C)CC3)c(F)cc3c(=O)c(C(=O)O)cn1c23 [Levofloxacin]
viability at 24 h (in vitro): > 90%
viability at 24 h [10]: > 90%
viability at 24 h [11]: > 90%
viability at 24 h [12]: > 90%

Compound: N[C@@H]1[C@H]2CN(c3nc4c(cc3F)c(=O)c(C(=O)O)cn4-c3ccc(F)cc3F)C[C@@H]12 [Trovafloxacin]
cell viability, co-culture versus mono-culture [2]: No difference in cell viability
viability at 24 h, 100 µM ([10]; 100 μM, pHeps-pKCs co-culture): 53.8%
viability at 24 h, 100 µM [13]: 55.8%
viability at 24 h, 100 µM ([11]; 100 μM): 73.8%

Compound: lipopolysaccharide [LPS]
IL-6 production upon LPS stimulation (pKCs): 2018 pg/mL
IL-6 level, LPS-treated (pKCs; 100 ng/ml LPS for 16 hours): 3420 pg/million cells/24 h
fold increase in IL-6 production (pKCs; [14]): 25 folds
fold increase in TNFα production (pKCs; [14]): 35 folds
IL-6 production upon LPS stimulation (iKCs): 5200 pg/mL
TNFα production upon LPS stimulation (iKCs): 10,000
IL-6 level, LPS-treated (iKCs; 100 ng/ml LPS for 16 hours): 5260 pg/million cells/24 h
fold increase in IL-6 production (iKCs; [14]): 35 fold
fold increase in TNFα production (iKCs; [14]): 33 folds
fold increase in IL-6 production (NL-Mφ; [14]): 103 folds
fold increase in TNFα production (NL-Mφ; 100 ng/ml LPS, level without LPS not detectable): > 1000 folds
TNFα production upon LPS activation (pHeps): below detectable levels
TNFα production upon LPS stimulation (KCs; KCs): 4000 pg/mL
IL-6 production upon LPS stimulation (KCs): 800 pg/mL

Reference: US20230034359A1, “GENERATION OF MATURE KUPFFER CELLS” (AGENCY FOR SCIENCE, TECHNOLOGY AND RESEARCH, priority 2018, published 2023)
